Assay results from PubChem BioAssay AID1963854 (Molecular Pharmacology Branch, DTP, NCI, 2024).
“And” between values parts separate entries of the source, which are not always exact repeats. Identical values can stand only once.

System: 186277-243-T-J2-PDC complex spheroid viability
Experiment: Anticancer human tumor 186277-243-T-J2-PDC patient-derived colon adenocarcinoma cell line growth inhibition [POLQ]
Conditions: for viability, T/C: stronger effect = lower value
Description: Multicellular complex tumor spheroid response to Polymerase (POL) inhibitors (novobiocin, ART-558, RP6685) in combination with a variety of drugs and investigational agents in selected tumor cell lines
The POL inhibitors (novobiocin, ART-558, and RP6685) were evaluated both individually and in combination with standard of care and investigational anticancer small molecules within a complex spheroid model of solid tumors. . Complex spheroids include a stromal component modeled by human endothelial cells (HUVEC) and fibroblasts modeled by human mesenchymal stem cells (MSCs). The concentration ranges selected for each drug and investigational agent were based upon clinically achievable concentrations if the clinical Cmax of the agent was known.
Compounds. The drugs and investigational agents: novobiocin (NSC847541), ART-558 (NSC835418), RP-6685 (NSC848927), peposertib (NSC802822), ceralasertib (NSC780249), elimusertib (NSC800525), camonsertib (NSC841442), AZD-1390 (NSC803789), olaparib (NSC753686), talazoparib (NSC767125), rucaparib (NSC756644), sotorasib (NSC818433), MRTX-1133 (NSC836407), SN-38 (NSC673596), topotecan (NSC609699), epotoside (NSC141540), doxorubicin (NSC123127), gemcitabine (NSC613327), 5-fluorouracil (NSC19893), paclitaxel (NSC125973), vemurafenib (NSC761431), MSA-2 (NSC828583), SN-011 (NSC837082), adavosertib (NSC754352), prexasertib (NSC758257), carboplatin (NSC241240) and oxaliplatin (NSC266046), were obtained from the National Cancer Institute (NCI) Developmental Therapeutics Program Chemical Repository (21). The FDA-approved anticancer drug set is available from the Developmental Therapeutics Program at https://dtp.cancer.gov/organization/dscb/obtaining/. […] The stock solutions were prepared in dimethyl sulfoxide (DMSO, Sigma-Aldrich, St. Louis, MO, cat. D2650), except for the platinum compounds which were prepared in saline (Quality Biological, Gaithersburg, MD, cat. 114-055-101), at 800-fold the tested concentration and stored at -70 degrees C prior to their use. All drugs and investigational agents were tested over a range starting from a high concentration at or near the clinical Cmax and decreasing in half-log increments. If the clinical Cmax for an agent had not been determined, the highest concentration tested was 10 microM, except for SN-38, which was tested at a high concentration of 1 microM.
Cell Culture. All cells were maintained in an incubator at 37 degrees C and 5% CO2 with 95% humidity. The PDC lines were cultured according to standard operating procedures established by the NCI PDMR (https://pdmr.cancer.gov). Table 3 of the manuscript, lists the cell lines along with the number of the three cell types plated to form the mct-spheroids and media for tumor cell growth. After thawing, all PDC lines, except 997537-175-T-J1-PDC and 415267-285-R-J2-PDC, were cultured in Matrigel-coated flasks prepared with a working solution of 1X Ham's F-12 nutrient mix, without supplementation (Thermo Fisher Scientific, cat. 11765054), 100 U/mL penicillin-streptomycin (Thermo Fisher Scientific, cat. 15140122), and 2.5% Matrigel (Corning Inc., Corning, NY, cat. 354248) for the first three passages. The two PDC lines 997537-175-T-J1-PDC and 415267-285-R-J2-PDC were cultured on uncoated flasks. The 857933-349-R-J2-PDC line was cultured in 6C/Colon 1B media containing advanced DMEM/F-12 (Thermo Fisher Scientific, cat. 12634028), 10 mM HEPES (Thermo Fisher Scientific, cat. 15630080), 1X GlutaMAX supplement (Thermo Fisher Scientific, cat. 35050061), 0.1 mg/mL primocin (InvivoGen, San Diego, CA, cat. ant-pm-2), 10% defined fetal bovine serum, heat inactivated (HyClone Laboratories Inc., Logan, UT, cat. SH30070.03HI), 50% L-WRN conditioned media (ATCC, cat. CRL-3276), 1.25 mM N-Acetyl-L-cysteine (Sigma-Aldrich, cat. A9165), 10 mM nicotinamide (Sigma-Aldrich, cat. N0636), 1X B-27 supplement (Thermo Fisher Scientific, cat. 17504044), 1X N-2 supplement (Thermo Fisher Scientific, cat. […]
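Further: spheroids exposed to compounds for seven days.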
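Wherever viability, T/C is given: 100% = DMSO vehicle control viability.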

## CC[C@@]1(O)C(=O)OCc2c1cc1n(c2=O)Cc2cc3c(CN(C)C)c(O)ccc3nc2-1 + Cc1cccc(N(C)C(=O)C2C(O)CCN2c2nc(C)cc(C(F)(F)F)c2C#N)c1
Curve of first compound, second compound 0.0316 µM
  IC50: 93.3 nM
Curve of first compound, second compound 0.1 µM
  IC50: 98.4 nM
Curve of first compound, second compound 0.316 µM
  IC50: 93.6 nM
Curve of first compound, second compound 1 µM
  IC50: 86 nM
Curve of first compound, second compound 3.16 µM
  IC50: 84.6 nM
Curve of first compound, second compound 10 µM
  IC50: 61.6 nM
Second compound 0.0316 µM, first compound 0.000316 µM
  viability, T/C: 112%
Second compound 0.0316 µM, first compound 0.001 µM
  viability, T/C: 83.4%
Second compound 0.0316 µM, first compound 0.00316 µM
  viability, T/C: 90.6%
Second compound 0.0316 µM, first compound 0.01 µM
  viability, T/C: 104%
Second compound 0.0316 µM, first compound 0.0316 µM
  viability, T/C: 67%
Second compound 0.0316 µM, first compound 0.1 µM
  viability, T/C: 48.9%
Second compound 0.1 µM, first compound 0.000316 µM
  viability, T/C: 102%
Second compound 0.1 µM, first compound 0.001 µM
  viability, T/C: 96.7%
Second compound 0.1 µM, first compound 0.00316 µM
  viability, T/C: 96%
Second compound 0.1 µM, first compound 0.01 µM
  viability, T/C: 103%
Second compound 0.1 µM, first compound 0.0316 µM
  viability, T/C: 74.8%
Second compound 0.1 µM, first compound 0.1 µM
  viability, T/C: 49.6%
Second compound 0.316 µM, first compound 0.000316 µM
  viability, T/C: 83.1%
Second compound 0.316 µM, first compound 0.001 µM
  viability, T/C: 106%
Second compound 0.316 µM, first compound 0.00316 µM
  viability, T/C: 99.4%
Second compound 0.316 µM, first compound 0.01 µM
  viability, T/C: 118%
Second compound 0.316 µM, first compound 0.0316 µM
  viability, T/C: 71.7%
Second compound 0.316 µM, first compound 0.1 µM
  viability, T/C: 48.7%
Second compound 1 µM, first compound 0.000316 µM
  viability, T/C: 105%
Second compound 1 µM, first compound 0.001 µM
  viability, T/C: 96.9%
Second compound 1 µM, first compound 0.00316 µM
  viability, T/C: 96.7%
Second compound 1 µM, first compound 0.01 µM
  viability, T/C: 114%
Second compound 1 µM, first compound 0.0316 µM
  viability, T/C: 74%
Second compound 1 µM, first compound 0.1 µM
  viability, T/C: 46.4%
Second compound 3.16 µM, first compound 0.000316 µM
  viability, T/C: 102%
Second compound 3.16 µM, first compound 0.001 µM
  viability, T/C: 100%
Second compound 3.16 µM, first compound 0.00316 µM
  viability, T/C: 96.2%
Second compound 3.16 µM, first compound 0.01 µM
  viability, T/C: 115%
Second compound 3.16 µM, first compound 0.0316 µM
  viability, T/C: 73.9%
Second compound 3.16 µM, first compound 0.1 µM
  viability, T/C: 45.9%
Second compound 10 µM, first compound 0.000316 µM
  viability, T/C: 115%
Second compound 10 µM, first compound 0.001 µM
  viability, T/C: 96.2%
Second compound 10 µM, first compound 0.00316 µM
  viability, T/C: 104%
Second compound 10 µM, first compound 0.01 µM
  viability, T/C: 87.5%
Second compound 10 µM, first compound 0.0316 µM
  viability, T/C: 59.8%
Second compound 10 µM, first compound 0.1 µM
  viability, T/C: 42.6%

## CC(C)n1c(=O)n(C)c2cnc3cc(F)c(-c4ccc(OCCCN5CCCCC5)nc4)cc3c21
Compound 0.0316 µM
  viability, T/C: 86.3% and 111% and 107%
Compound 0.1 µM
  viability, T/C: 104% and 91.8% and 97.7%
Compound 0.316 µM
  viability, T/C: 89.3% and 95.6% and 91.6%
Compound 1 µM
  viability, T/C: 100% and 98.3% and 88.6%
Compound 3.16 µM
  viability, T/C: 100% and 98.2% and 98.4%
Compound 10 µM
  viability, T/C: 86% and 92.2% and 96.9%
Curve of compound
  IC50: > 10000 nM

## COc1cc2cc(C(=O)CCC(=O)O)sc2cc1OC
Compound 0.0316 µM
  viability, T/C: 92.9% and 94% and 94.8%
Compound 0.1 µM
  viability, T/C: 92.5% and 101% and 99.4%
Compound 0.316 µM
  viability, T/C: 100% and 88% and 107%
Compound 1 µM
  viability, T/C: 111% and 86% and 87.3%
Compound 3.16 µM
  viability, T/C: 94.3% and 96.3% and 101%
Compound 10 µM
  viability, T/C: 94.8% and 95.2% and 101%
Curve of compound
  IC50: > 10000 nM

## O=C(c1cc(Cc2n[nH]c(=O)c3ccccc23)ccc1F)N1CCN(C(=O)C2CC2)CC1
Compound 0.0316 µM
  viability, T/C: 92.4% and 106% and 120%
Compound 0.1 µM
  viability, T/C: 98.8% and 100% and 84.5%
Compound 0.316 µM
  viability, T/C: 103% and 102% and 101%
Compound 1 µM
  viability, T/C: 107% and 106% and 104%
Compound 3.16 µM
  viability, T/C: 110% and 111% and 128%
Compound 10 µM
  viability, T/C: 79.3% and 62% and 111%
Curve of compound
  IC50: > 10000 nM

## CCc1cc2c(N3CCc4c(cc(Cn5ccnc5)cc4-c4cn(C)nc4C(F)(F)F)C3=O)cc(C)nc2c(OC)n1
Compound 0.0316 µM
  viability, T/C: 100% and 88.7% and 82.3%
Compound 0.1 µM
  viability, T/C: 110% and 93% and 96.3%
Compound 0.316 µM
  viability, T/C: 101% and 96.8% and 86.6%
Compound 1 µM
  viability, T/C: 104% and 106% and 86.8%
Compound 3.16 µM
  viability, T/C: 86% and 109% and 103%
Compound 10 µM
  viability, T/C: 76.3% and 99.6% and 88.1%
Curve of compound
  IC50: > 10000 nM

## CNCc1ccc(-c2[nH]c3cc(F)cc4c3c2CCNC4=O)cc1
Compound 0.0316 µM
  viability, T/C: 101% and 103% and 98.4%
Compound 0.1 µM
  viability, T/C: 108% and 122% and 93.3%
Compound 0.316 µM
  viability, T/C: 99.6% and 100% and 106%
Compound 1 µM
  viability, T/C: 97.1% and 93.2% and 108%
Compound 3.16 µM
  viability, T/C: 116% and 115% and 119%
Compound 10 µM
  viability, T/C: 93.5% and 116% and 103%
Curve of compound
  IC50: > 10000 nM
